Measurements published in patent publication US8067542B1 (priority 2003, dated 2011).
Where two headings read alike, the source gives them in different places.

Key:
Fusarium graminearum [1] = type: cell-based
Verticillium dahliae [2] = type: cell-based
Verticillium dahliae [3] = conditions: plants expressing AlfAFP; cited from earlier work
Fusarium graminearum [4] = conditions: cited from earlier work
[5] = High Ionic Strength Media (50 mM K+, 1 mM Ca2+)

| Substance | minimun concentration of protein required to inhibit fungal growth (Fusarium graminearum [1]; [5]) | minimun concentration of protein required to inhibit fungal growth (Fusarium graminearum [1]; Standard Media) | minimum concentration of protein required to inhibit fungal growth (Verticillium dahliae [2]; [5]) | minimum concentration of protein required to inhibit fungal growth (Verticillium dahliae [2]; Standard Media) | agronomic effect on potato tuber size (Verticillium dahliae [3]) | protection of plants infected with Fusarium head blight (Fusarium graminearum [4]) |
| --- | --- | --- | --- | --- | --- | --- |
| Alf3: AlfAFP variant: AsnTyr inserted between C33 and R34 (RTCENLADKYRGPCFSGCDTHCTTKENAVSGRCNYRDDFRCWCTKRC; listed as Medicago sativa) | >>>20 ppm | 20 ppm | – | – | – | – |
| Alf - wt: native alfalfa antifungal protein (plant defensin from Medicago sativa seeds), SEQ ID NO:2 (RTCENLADKYRGPCFSGCDTHCTTKENAVSGRCRDDFRCWCTKRC; listed as Medicago sativa) | 15-20 ppm | 10 ppm | 15 ppm | 5 ppm | reduction in potato tuber size | unable to provide an adequate level of protection |
